Molecules are shown by their SMILES. The source made the active and inactive calls.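 How the source made its calls: active means EC50 at or below 30 µM together with a response span of at least a set limit; inactive means the rest.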 Bounds are passed on as bounds.

The target of the first assay is GTPase HRas (Homo sapiens) (UniProt P01112). Kind of assay: inhibition of fluorescent GTP binding to activated Ras – biochemical, pyrazoline analogs, multiplex bead flow cytometry, SAR follow-up (AID 2050). The conditions noted are these: GST-Ras beads, Bodipy-FL-GTP binding. (In general: A flow cytometer gives signals particle by particle.)
Sequence of GTPase HRas (Homo sapiens) (P01112 whole entry, looked up): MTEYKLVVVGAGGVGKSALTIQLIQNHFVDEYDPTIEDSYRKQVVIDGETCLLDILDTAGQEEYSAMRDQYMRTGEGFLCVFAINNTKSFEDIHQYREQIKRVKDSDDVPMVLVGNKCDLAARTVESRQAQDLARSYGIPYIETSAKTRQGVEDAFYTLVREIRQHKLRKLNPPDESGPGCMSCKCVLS
Usually EC50 stands for the concentration at which the effect is half-maximal. As to `COc1ccc(C2CC(c3ccncc3)=NN2c2ccc(S(N)(=O)=O)cc2)cc1` (centres undefined), the EC50 was > 30 µM (inactive).

For the compound `NS(=O)(=O)c1ccc(N2N=C(c3ccccc3)CC2c2cccc(Cl)c2)cc1` (centres undefined), the EC50 is > 30 µM (inactive).

Regarding `COc1ccc(C2CC(c3ccc(F)cc3)=NN2c2cccc(F)c2)cc1OC` (centres undefined), the EC50 is > 30 µM (inactive).

`COc1ccc(C2CC(C)=NN2c2ccc(S(N)(=O)=O)cc2)cc1` (centres undefined): the EC50 is > 30 µM (inactive).

For `COc1ccc(C2=NN(c3ccccc3)C(c3ccccc3C(F)(F)F)C2)cc1` (centres undefined), the EC50 entry was “inactive”.

Regarding `Cc1onc(-c2ccccc2)c1-c1ccc(S(N)(=O)=O)cc1`, the EC50 was > 30 µM (inactive).

As for `Clc1cccc(N2N=C(c3ccccc3)CC2c2ccccc2)c1` (centres undefined), the EC50 was > 30 µM (inactive).

`O=S(=O)(c1ccc(N2N=C(c3ccccc3)CC2c2ccccc2)cc1)C(F)F` (centres undefined): the EC50 was > 30 µM (inactive).

Regarding `O=C(O)c1ccc(N2N=C(c3ccccc3)CC2c2ccccc2)cc1` (centres undefined), the EC50 is > 30 µM (inactive).

For the compound `COc1ccc(C2CC(c3ccc(Cl)cc3)=NN2c2ccccc2)cc1OC` (centres undefined), the EC50 is > 30 µM (inactive).

Regarding `CN(C)c1ccc(C2CC(c3ccc(Cl)cc3)=NN2c2ccccc2)cc1` (centres undefined), the EC50 is > 30 µM (inactive).

For `COc1ccccc1C1CC(c2ccccc2)=NN1c1ccccc1` (centres undefined), the EC50 was > 30 µM (inactive).

On to `COc1ccc(C2CC(c3cccc(C(F)(F)F)c3)=NN2c2ccc(S(N)(=O)=O)cc2)cc1` (centres undefined), for which the EC50 was > 30 µM (inactive).

As for `Brc1ccc(N2N=C(c3ccccc3)CC2c2ccccc2)cc1` (centres undefined), the EC50 is > 30 µM (inactive).

With `COc1ccc(C2CC(C3CCCCC3)=NN2c2ccc(S(N)(=O)=O)cc2)cc1` (centres undefined), the EC50 was > 30 µM (inactive).

Regarding `O=[N+]([O-])c1ccc(N2N=C(c3ccccc3)CC2c2ccc(O)cc2)cc1` (centres undefined), the EC50 was > 30 µM (inactive).

`COc1ccc(C2CC(c3ccccc3)=NN2c2ccc(Cl)c(C(=O)O)c2)cc1OC` (centres undefined): the EC50 is > 30 µM (inactive).

`COc1ccc(C2CC(c3ccccc3Br)=NN2c2ccc(S(N)(=O)=O)cc2)cc1` (centres undefined): the EC50 was > 30 µM (inactive).

With `Fc1ccccc1C1CC(c2ccc(Br)cc2)=NN1c1ccc(Br)cc1` (centres undefined), the EC50 was > 30 µM (inactive).

Consider `COc1ccc(C2=NN(c3ccccc3)C(c3ccc(OC)c(OC)c3C(=O)O)C2)cc1` (centres undefined), for which the EC50 was > 30 µM (inactive).

As for `O=[N+]([O-])c1ccc(N2N=C(c3ccccc3)CC2c2ccccc2)cc1` (centres undefined), the EC50 is > 30 µM (inactive).

As for `O=[N+]([O-])c1cccc(C2CC(c3ccc(F)cc3)=NN2c2ccccc2)c1` (centres undefined), the EC50 was > 30 µM (inactive).

For the compound `COc1ccc(C2CC(c3ccc(Br)cc3)=NN2c2ccccc2Cl)cc1` (centres undefined), the EC50 was > 30 µM (inactive).

For `Cc1cccc(C2CC(c3ccccc3)=NN2c2ccc(S(N)(=O)=O)cc2)c1` (centres undefined), the EC50 is > 30 µM (inactive).

In the case of `NS(=O)(=O)c1ccc(N2N=C(c3ccccc3)CC2c2ccc(Cl)cc2)cc1` (centres undefined), the EC50 was > 30 µM (inactive).

As to `CN(C)c1ccc(C2CC(c3ccc(F)cc3)=NN2c2ccccc2)cc1` (centres undefined), the EC50 is > 30 µM (inactive).

Take `COc1ccc(C2CC(c3cccc(Br)c3)=NN2c2ccc(S(N)(=O)=O)cc2)cc1` (centres undefined): the EC50 was > 30 µM (inactive).

In the case of `FC(F)(F)c1ccccc1C1CC(c2ccc(Br)cc2)=NN1c1ccccc1` (centres undefined), the EC50 is > 30 µM (inactive).

As to `NS(=O)(=O)c1ccc(N2N=C(c3ccccc3)CC2c2ccccc2Cl)cc1` (centres undefined), the EC50 was > 30 µM (inactive).

As to `NS(=O)(=O)c1ccc(N2N=C(c3ccc(Cl)cc3)CC2c2ccccc2)cc1` (centres undefined), the EC50 entry is “inactive”.

Consider `COc1ccc(C2CC(c3ccc(Br)cc3)=NN2c2ccc(S(N)(=O)=O)cc2)cc1` (centres undefined), for which the EC50 was > 30 µM (inactive).

As to `Fc1ccc(C2=NN(c3cccc(Br)c3)C(c3ccccc3)C2)cc1` (centres undefined), the EC50 is > 30 µM (inactive).

Still in this assay, the particulars now being: GST-Ras beads, Bodipy-FL-GTP binding, measured here: Ki calculated from EC50.
As usually defined, the Ki is the dissociation constant of the complex between target and ligand, obtained from inhibition or displacement. Consider `COc1ccc(C2=NN(c3ccccc3)C(c3ccccc3C(F)(F)F)C2)cc1` (centres undefined), for which the Ki was 1.19 µM.

Consider `NS(=O)(=O)c1ccc(N2N=C(c3ccc(Cl)cc3)CC2c2ccccc2)cc1` (centres undefined), for which the Ki was 0.01 µM.

Values taken from PubChem BioAssay AID2050 (NMMLSC, 2009).
